Experimental data from patent publication US20210186972A1, “FORMULATIONS AND METHODS FOR THE PREVENTION AND TREATMENT OF TUMOR METASTASIS AND TUMORIGENESIS” (THE UNITED STATES OF AMERICA, AS REPRESENTED BY THE …, priority 2018, published 2021).

Columns and labels:
Pol II transcription = Pol II transcription status: CUGBP and SC35 immunolabeling; type: cell-based
Description: To further determine whether metarrestin interferes with Pol II transcription in general, CUGBP was immunolabeled. The steady state nuclear distribution of CUGBP, a multifunctional hnRNP protein highly enriched in the PNC, is dependent upon Pol II transcription.

[1] = Cytotoxicity secondary assay of screening hits; type: cell-based; details: screening hit
Description: (§1) A metastatic prostate cancer cell line, PC3M, was developed in order to screen small molecules that effectively disassemble PNCs (see Pettaway, et al., “Selection of highly metastatic variants of different human prostatic carcinomas using orthotopic implantation in nude mice,” Clin. Cancer Res., (2): 1627-36 (1996), incorporated herein in its entirety). PC3M has a […] stably express GFP-PTB (polypyrimidine track binding protein) (FIG. 1, top panels), an essential component of PNCs (see Huang, et al., “The perinucleolar compartment and transcription,” Journal of Cell Biology, (143): 35-47 (1998), incorporated herein in its entirety). Compounds able to reduce PNC prevalence by 50% were filtered in secondary assays to eliminate those that induced apoptosis, DNA damage, generic cytotoxicity, or cell-cycle blockage (see Norton, et al., “Automated high-content screening for compounds that disassemble the perinucleolar compartment,” J Biomol Screen, (14): 1045-53 (2009) and Frankowski, et al., “Discovery and Development of Small Molecules That Reduce PNC Prevalence, in Probe Reports from the NIH Molecular Libraries Program, Bethesda (Md.).(2010), incorporated herein in their entirety). The remaining hits were evaluated for invasion inhibition through MATRIGEL gelatinous protein mixture and anchorage-independent growth inhibition using soft agar assays.

[2] = Anchorage-independent growth, soft agar assay of screening hits; type: cell-based; details: screening hit
Description: as §1

[3] = Invasion through MATRIGEL, screening hits; type: cell-based; details: screening hit
Description: as §1

PC3M-GFP-PTB cells = test: PNC prevalence / PNC disassembly in PC3M-GFP-PTB cells; type: cell-based, human; details: screening hit
Description: FIG. 1 is a graph showing the concentration-response curve against PNC prevalence in PC3M (a metastatic prostate cancer cell line)-GFP (green fluorescent protein)-PTB (polypyrimidine tract-binding protein) cells (squares, PC3M, has a PNC prevalence of 75-85% in the absence of treatment) and cytotoxicity as measured by cellular ATP (CELLTITER GLO™) (circles). Representative PTB-GFP images for cells at the indicated concentrations (arrowheads indicate PNCs) (scale bar=5 μm) are shown in the three panels above the graph. The relative signal (%) is along the y-axis and Metarrestin [log M] is along the x-axis.
as §1

PC3M cells = test: PNC disassembly by biotin-metarrestin in cultured cells; type: cell-based, human; details: 1 μM, 24 hours (FIG. 60)
Description: FIG. 60 is a set of panels showing the effectiveness of biotin-metarrestin in disassembling PNCs. The effects of metarrestin and biotin-metarrestin were compared in PC3M cells treated at 1 μM or untreated for 24 hours. Arrows indicate PNCs. Scale bar=5 μm.

In the case of `CC[C@H](C)[C@@H]1NC(=O)CNC(=O)[C@@H]2Cc3c([nH]c4cc(O)ccc34)[S+]([O-])C[C@@H](NC(=O)CNC1=O)C(=O)N[C@@H](CC(N)=O)C(=O)N1C[C@H](O)C[C@H]1C(=O)N[C@@H]([C@@H](C)[C@@H](O)CO)C(=O)N2` (stereo in doubt) [α-amanitin, reference compound], the “Localization of CUGBP” value (Pol II transcription) is reported as “induces a localization shift to the cytoplasm” and the SC35 distribution pattern (Pol II transcription) is reported as “changed to isolated large dots”.

In the case of `N=c1c2c(-c3ccccc3)c(-c3ccccc3)n(Cc3ccccc3)c2ncn1CCCO` [MLS000556915], the Cytotoxicity [1] is reported as “lack of cytotoxicity”, the Soft agar growth [2] is reported as “soft agar growth inhibitor” and the Invasion [3] is reported as “ability to block invasion”. The PNC inhibition (PC3M-GFP-PTB cells) was “potency as a PNC inhibitor”.

For `N=c1c2c(-c3ccccc3)c(-c3ccccc3)n(Cc3cccc(C#CCCCCNC(=O)CCCC[C@@H]4SC[C@@H]5NC(=O)N[C@@H]54)c3)c2ncn1[C@H]1CC[C@H](O)CC1` [biotin-conjugated metarrestin, N-(6-(3-((3-(trans-4-hydroxycyclohexyl)-4-imino-5,6-diphenyl-3,4-dihydro-7H-pyrrolo[2,3-d]pyrimidin-7-yl)methyl)phenyl)hex-5-yn-1-yl)-5-((3aS,4S,6aR)-2-oxohexahydro-1H-thieno[3,4-d]imidazol-4-yl)pentanamide], the “PNC disassembly in cultured cells” value (PC3M cells) was “maintains its efficacy for PNC disassembly”.
